Assay [1] concerns the target MDM2 (Homo sapiens, UniProt Q00987). In words: Competitive fluorescence polarization assay for MDM2. The format is binding. The note with it: competitive FP assay, MDM2; for IC50: read-out: IC50 (MDM2); for Ki: read-out: Ki (MDM2). For orientation: Fluorescence polarisation rises when a labelled molecule tumbles more slowly, as on binding a larger partner.
The target of assay [2] is T1, MDMX (Homo sapiens, UniProt O15151).
T1 sequence (O15151 1-125): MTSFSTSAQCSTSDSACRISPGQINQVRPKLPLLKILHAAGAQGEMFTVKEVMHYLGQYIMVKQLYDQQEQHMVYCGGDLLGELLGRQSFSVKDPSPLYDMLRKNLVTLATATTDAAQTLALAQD
Description: Competitive fluorescence polarization assay for MDMX. The assay is classed as binding. The note with it: competitive FP assay; for IC50: read-out: IC50 (MDMX); for Ki: read-out: Ki (MDMX).

Where a SMILES comes first, the peptide text is derived from it. Bridges are numbered along the chain shown (N, C = ends). [ ]: non-standard residue; d: D form. The star is where a group is joined. Trp(6-Cl) = N[C@@H](Cc1c[nH]c2cc(Cl)ccc12)C(=O)O; Phe(4-COOH) = N[C@@H](Cc1ccc(C(=O)O)cc1)C(=O)O; Phe(3,4-F2) = N[C@@H](Cc1ccc(F)c(F)c1)C(=O)O; Palmitoyl = CCCCCCCCCCCCCCCC(=O)*; R8 = C=CCCCCCC[C@@](C)(N)C(=O)O; Cba = N[C@@H](CC1CCC1)C(=O)O; S5 = C=CCCC[C@](C)(N)C(=O)O; Nle = CCCC[C@H](N)C(=O)O Some results are limits rather than exact numbers.

Chain of MDM2 (Q00987 1-125): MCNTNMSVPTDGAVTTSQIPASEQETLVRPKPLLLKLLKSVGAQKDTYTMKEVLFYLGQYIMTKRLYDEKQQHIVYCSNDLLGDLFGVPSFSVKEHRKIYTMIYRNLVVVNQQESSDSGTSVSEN

In general, IC50 refers to the midpoint of a concentration-inhibition curve. What is called Ki is the equilibrium dissociation constant of an inhibitor or competing ligand from its target. For the molecule `CCCC[C@H](NC(=O)[C@H](Cc1c[nH]c2ccccc12)NC(=O)[C@H](C)NC(=O)[C@]1(C)CCCC=CCCCCCC[C@@](C)(NC(=O)[C@H](Cc2ccccc2)NC(=O)[C@@H](NC(=O)[C@H](CC(C)C)NC(C)=O)[C@@H](C)O)C(=O)N[C@@H](C)C(=O)N[C@@H](Cc2ccc(O)cc2)C(=O)N[C@@H](Cc2c[nH]c3ccccc23)C(=O)N[C@@H](C)C(=O)N[C@@H](CCC(N)=O)C(=O)N[C@@H](CC2CCC2)C(=O)N1)C(=O)N[C@@H](C)C(N)=O` [compound 239] (Ac-LTF[R8]AYWAQ[Cba][S5]AW[Nle]A-NH2; staple 4-11), the IC50 in assay [1] is 0.01 to 0.1 µM; in assay [2] it was 0.1 to 1 µM. The inhibition constant (Ki) in assay [1] and in assay [2] was 0.01 to 0.1 µM in each case.
In the case of `CCCC[C@H](NC(=O)[C@H](Cc1c[nH]c2ccccc12)NC(=O)[C@H](C)NC(=O)[C@]1(C)CCCC=CCCCCCC[C@@](C)(NC(=O)[C@H](Cc2ccccc2)NC(=O)[C@@H](NC(=O)[C@H](CCC(=O)O)NC(C)=O)[C@@H](C)O)C(=O)N[C@@H](C)C(=O)N[C@@H](Cc2ccc(O)cc2)C(=O)N[C@@H](Cc2c[nH]c3ccccc23)C(=O)N[C@@H](C)C(=O)N[C@@H](CCC(N)=O)C(=O)N[C@@H](CC2CCC2)C(=O)N1)C(=O)N[C@@H](C)C(N)=O` [compound 240] (Ac-ETF[R8]AYWAQ[Cba][S5]AW[Nle]A-NH2; staple 4-11), in assay [1], the IC50 is 0.01 to 0.1 µM and the inhibitory constant (Ki) is below 0.01 µM. In assay [2], the concentration for half-maximal inhibition (IC50) is 0.1 to 1 µM and the Ki was in the range of 0.01 to 0.1 µM.
Regarding `CCCC[C@H](NC(=O)[C@H](Cc1c[nH]c2ccccc12)NC(=O)[C@H](C)NC(=O)[C@]1(C)CCCC=CCCCCCC[C@@](C)(NC(=O)[C@H](Cc2ccccc2)NC(=O)[C@@H](NC(=O)[C@H](CC(C)C)NC(C)=O)[C@@H](C)O)C(=O)N[C@@H](CCC(=O)O)C(=O)N[C@@H](Cc2ccc(O)cc2)C(=O)N[C@@H](Cc2c[nH]c3ccccc23)C(=O)N[C@@H](C)C(=O)N[C@@H](CCC(N)=O)C(=O)N[C@@H](CC2CCC2)C(=O)N1)C(=O)N[C@@H](C)C(N)=O` [compound 241] (Ac-LTF[R8]EYWAQ[Cba][S5]AW[Nle]A-NH2; staple 4-11), in assay [1], the concentration for half-maximal inhibition (IC50) was 0.01 to 0.1 µM and the inhibition constant Ki was below 0.01 µM. Moreover, in assay [2], the IC50 lay in the range of 0.1 to 1 µM and the inhibition constant Ki was 0.01 to 0.1 µM.
For the molecule `CCCC[C@H](NC(=O)[C@H](C)NC(=O)[C@H](CO)NC(=O)[C@]1(C)CCCC=CCCCCCC[C@@](C)(NC(=O)[C@H](Cc2ccccc2)NC(=O)[C@@H](NC(=O)[C@H](CC(C)C)NC(C)=O)[C@@H](C)O)C(=O)N[C@@H](CCC(=O)O)C(=O)N[C@@H](Cc2ccc(O)cc2)C(=O)N[C@@H](Cc2c[nH]c3ccccc23)C(=O)N[C@@H](Cc2c[nH]c3ccccc23)C(=O)N[C@@H](CCC(N)=O)C(=O)N[C@@H](CC2CCC2)C(=O)N1)C(=O)N[C@@H](C)C(N)=O` [compound 246] (Ac-LTF[R8]EYWWQ[Cba][S5]SA[Nle]A-NH2; staple 4-11), in assay [1], the concentration for half-maximal inhibition (IC50) fell in the range of 0.01 to 0.1 µM and the Ki was below 0.01 µM. Besides, in assay [2], the half-inhibitory concentration (IC50) fell in the range of 0.1 to 1 µM and the inhibition constant Ki lay in the range of 0.01 to 0.1 µM.
With `CC[C@H](C)[C@H](NC(=O)[C@H](C)NC(=O)[C@H](C)NC(=O)[C@]1(C)CCCC=CCCCCCC[C@@](C)(NC(=O)[C@H](Cc2ccc(F)c(F)c2)NC(=O)[C@@H](NC(=O)[C@H](CC(C)C)NC(C)=O)[C@@H](C)O)C(=O)N[C@@H](CCC(=O)O)C(=O)N[C@@H](Cc2ccc(O)cc2)C(=O)N[C@@H](Cc2c[nH]c3ccccc23)C(=O)N[C@@H](C)C(=O)N[C@@H](CCC(N)=O)C(=O)N[C@@H](CC2CCC2)C(=O)N1)C(=O)N[C@H](C)C(N)=O` [compound 248] (Ac-LT[Phe(3,4-F2)][R8]EYWAQ[Cba][S5]AAI[dA]-NH2; staple 4-11), in assay [1], the IC50 is 0.01 to 0.1 µM and the inhibitory constant (Ki) is below 0.01 µM. Besides, in assay [2], the IC50 was 0.01 to 0.1 µM and the inhibition constant Ki lay in the range of 0.01 to 0.1 µM.
Turning to `CCCCCCCCCCCCCCCC(=O)N[C@@H](CCC(=O)O)C(=O)N[C@H](C(=O)N[C@@H](Cc1ccccc1)C(=O)N[C@]1(C)CCCCCCC=CCCC[C@@](C)(C(=O)N[C@@H](CO)C(=O)N[C@@H](C)C(=O)N[C@@H](C)C(N)=O)NC(=O)[C@H](CC2CCC2)NC(=O)[C@H](CCC(N)=O)NC(=O)[C@H](C)NC(=O)[C@H](Cc2c[nH]c3ccccc23)NC(=O)[C@H](Cc2ccc(O)cc2)NC(=O)[C@H](CCC(=O)O)NC1=O)[C@@H](C)O` [compound 250] (Palmitoyl-ETF[R8]EYWAQ[Cba][S5]SAA-NH2; staple 4-11), in assay [1], the IC50 lay in the range of 0.1 to 1 µM and the Ki was in the range of 0.1 to 1 µM. Also, in assay [2], the concentration for half-maximal inhibition (IC50) is above 1 µM and the inhibition constant (Ki) was above 1 µM.
For the molecule `CC(=O)N[C@@H](CC(C)C)C(=O)N[C@H](C(=O)N[C@@H](Cc1ccccc1)C(=O)N[C@]1(C)CCCCCCC=CCCC[C@@](C)(C(=O)N[C@@H](CO)C(=O)N[C@@H](C)C(=O)N[C@@H](C)C(N)=O)NC(=O)[C@H](CC2CCC2)NC(=O)[C@H](CCC(N)=O)NC(=O)[C@H](C)NC(=O)[C@H](Cc2c[nH]c3ccccc23)NC(=O)[C@H](Cc2ccc(O)cc2)NC(=O)[C@H](C)NC1=O)[C@@H](C)O` [compound 255] (Ac-LTF[R8]AYWAQ[Cba][S5]SAA-NH2; staple 4-11), in assay [1], the half-maximal inhibitory concentration (IC50) was in the range of 0.01 to 0.1 µM and the Ki was below 0.01 µM. Also, in assay [2], the 50% inhibitory concentration (IC50) lay within 0.01 to 0.1 µM and the inhibition constant Ki is 0.01 to 0.1 µM.
On to `CC(=O)N[C@@H](CC(C)C)C(=O)N[C@H](C(=O)N[C@@H](Cc1ccccc1)C(=O)N[C@]1(C)CCCCCCC=CCCC[C@@](C)(C(=O)N[C@@H](CO)C(=O)N[C@@H](C)C(=O)N[C@@H](Cc2ccccc2)C(N)=O)NC(=O)[C@H](CC2CCC2)NC(=O)[C@H](CCC(N)=O)NC(=O)[C@H](C)NC(=O)[C@H](Cc2c[nH]c3ccccc23)NC(=O)[C@H](Cc2ccc(O)cc2)NC(=O)[C@H](CCC(=O)O)NC1=O)[C@@H](C)O` [compound 256] (Ac-LTF[R8]EYWAQ[Cba][S5]SAF-NH2; staple 4-11), for which the half-maximal inhibitory concentration (IC50) in assay [1] and in assay [2] was 0.01 to 0.1 µM in each case. The values for the inhibition constant Ki in assay [1] and in assay [2] were below 0.01 µM and 0.01 to 0.1 µM, respectively.
Consider `CC(=O)N[C@@H](CC(C)C)C(=O)N[C@H](C(=O)N[C@@H](Cc1ccccc1)C(=O)N[C@]1(C)CCCCCCC=CCCC[C@@](C)(C(=O)N[C@@H](CO)C(=O)N[C@@H](C)C(=O)N[C@@H](Cc2ccccc2)C(=O)N[C@H](C)C(N)=O)NC(=O)[C@H](CC2CCC2)NC(=O)[C@H](CCC(N)=O)NC(=O)[C@H](C)NC(=O)[C@H](Cc2c[nH]c3ccccc23)NC(=O)[C@H](Cc2ccc(O)cc2)NC(=O)[C@H](CCC(=O)O)NC1=O)[C@@H](C)O` [compound 257] (Ac-LTF[R8]EYWAQ[Cba][S5]SAF[dA]-NH2; staple 4-11), for which, in assay [1], the IC50 is 0.01 to 0.1 µM and the Ki is below 0.01 µM. Also, in assay [2], the 50% inhibitory concentration (IC50) lay within 0.01 to 0.1 µM and the Ki was in the range of 0.01 to 0.1 µM.
Consider `CC(=O)N[C@@H](CC(C)C)C(=O)N[C@H](C(=O)N[C@@H](Cc1ccccc1)C(=O)N[C@]1(C)CCCCCCC=CCCC[C@@](C)(C(=O)N[C@@H](CO)C(=O)N[C@@H](C)C(=O)N[C@@H](Cc2ccccc2)C(N)=O)NC(=O)[C@H](CC2CCC2)NC(=O)[C@H](CCC(N)=O)NC(=O)[C@H](C)NC(=O)[C@H](Cc2c[nH]c3ccccc23)NC(=O)[C@H](Cc2ccc(O)cc2)NC(=O)[C@H](C)NC1=O)[C@@H](C)O` [compound 258] (Ac-LTF[R8]AYWAQ[Cba][S5]SAF-NH2; staple 4-11), for which, in assay [1], the IC50 was 0.01 to 0.1 µM and the Ki was below 0.01 µM. Moreover, in assay [2], the IC50 was 0.1 to 1 µM and the Ki lay in the range of 0.01 to 0.1 µM.
For `CC(=O)N[C@@H](CC(C)C)C(=O)N[C@H](C(=O)N[C@@H](Cc1ccc(F)c(F)c1)C(=O)N[C@]1(C)CCCCCCC=CCCC[C@@](C)(C(=O)N[C@@H](CO)C(=O)N[C@@H](C)C(=O)N[C@@H](Cc2ccccc2)C(N)=O)NC(=O)[C@H](CC2CCC2)NC(=O)[C@H](CCC(N)=O)NC(=O)[C@H](C)NC(=O)[C@H](Cc2c[nH]c3ccccc23)NC(=O)[C@H](Cc2ccc(O)cc2)NC(=O)[C@H](C)NC1=O)[C@@H](C)O` [compound 259] (Ac-LT[Phe(3,4-F2)][R8]AYWAQ[Cba][S5]SAF-NH2; staple 4-11), in assay [1], the IC50 was in the range of 0.01 to 0.1 µM and the Ki was below 0.01 µM. Further, in assay [2], the half-inhibitory concentration (IC50) was 0.01 to 0.1 µM and the Ki was 0.01 to 0.1 µM.
Take `CC(=O)N[C@@H](CC(C)C)C(=O)N[C@H](C(=O)N[C@@H](Cc1ccccc1)C(=O)N[C@]1(C)CCCCCCC=CCCC[C@@](C)(C(=O)N[C@@H](CO)C(=O)N[C@@H](C)C(=O)N[C@@H](Cc2ccccc2)C(N)=O)NC(=O)[C@H](CC2CCC2)NC(=O)[C@H](CCC(N)=O)NC(=O)[C@H](C)NC(=O)[C@H](Cc2c[nH]c3ccccc23)NC(=O)[C@H](Cc2ccc(C(=O)O)cc2)NC(=O)[C@H](C)NC1=O)[C@@H](C)O` [compound 260] (Ac-LTF[R8]A[Phe(4-COOH)]WAQ[Cba][S5]SAF-NH2; staple 4-11): the IC50 in assay [1] and in assay [2] was 0.01 to 0.1 µM in each case. The inhibitory constant (Ki) in assay [1] was below 0.01 µM; in assay [2] it was 0.01 to 0.1 µM.
Take `CC(=O)N[C@@H](CC(C)C)C(=O)N[C@H](C(=O)N[C@@H](Cc1ccccc1)C(=O)N[C@]1(C)CCCCCCC=CCCC[C@@](C)(C(=O)N[C@@H](CO)C(=O)N[C@@H](C)C(=O)N[C@@H](Cc2ccccc2)C(N)=O)NC(=O)[C@H](CC2CCC2)NC(=O)[C@H](CCC(N)=O)NC(=O)[C@H](C)NC(=O)[C@H](Cc2c[nH]c3cc(Cl)ccc23)NC(=O)[C@H](Cc2ccc(O)cc2)NC(=O)[C@H](CCC(=O)O)NC1=O)[C@@H](C)O` [compound 261] (Ac-LTF[R8]EY[Trp(6-Cl)]AQ[Cba][S5]SAF-NH2; staple 4-11): in assay [1], the 50% inhibitory concentration (IC50) lay in the range of 0.01 to 0.1 µM and the Ki was below 0.01 µM. For the same molecule, in assay [2], the half-maximal inhibitory concentration (IC50) was in the range of 0.1 to 1 µM and the Ki lay within 0.01 to 0.1 µM.

(Values after patent US8927500B2, “Peptidomimetic macrocycles” (Aileron Therapeutics, Inc., priority 2012, dated 2015).)
